Results on 42 compounds are retold here after US10183936B2, “Hepatitis B core protein allosteric modulators” (priority 2014, dated 2019).

The subject of data set [1] is HBV viral production in AD38 cells. Briefly: Viral load production in AD38 cells by quantitative PCR of the HBV core sequence in supernatant. It counts as cell-based. The following applies: Hepatitis B virus, 144 h; 10 μM compound, 6 days at 37° C., viral load in supernatant compared against DMSO control wells; read-out: AD38 Viral Load (CpAM/DMSO %) at 10 μM. On the procedure: (§1) Example 56: Assay Measuring Activity of Compounds on Viral Production in and on Viability of AD38 Cells
(§2) AD38 cells were then re-suspended with 10 mL of Treatment Medium and counted. Wells of a collagen coated 96-well NUNC microtiter plate were seeded at 50,000/well in 180 μL of Treatment Medium, and 20 μL of in treatment media with either 10% DMSO (Control) or a 10× solution of compound in 10% DMSO was added. Plates were incubated for 6 days at 37° C.
Viral load production was assayed by quantitative PCR of the core sequence. Briefly, 5 μL of clarified supematant was added to a PCR reaction mixture that contained forward primers HBV-f 5′-CTGTGCCTTGGGTGGCTTT-3′, Reverse primers HBV-r 5′-[…]-3′ and Fluorescent TaqMan™ Probes HBV-probe 5′-FAM/AGCTCCAAA/ZEN/[…]/3IABkFQ-3′ in Quanta Biosciences PerfeCTa® qPCR Toughmix®, and was subsequently on an Applied Biosystems VIIA7 in a final volume of 20 μL. The PCR mixture was incubated at 45° C. for 5 minutes, then 95° C. for 10 min, followed by 40 cycles of 10 seconds at 95° C. and 20 seconds at 60° C. Viral load was quantitated against known standards by using ViiA™ 7 Software. Viral load in the supematant from wells with treated cells were compared against viral load in supernatant from DMSO control wells (≥3 per plate).

For data set [2], the system named is AD38 cells. Briefly: Viability of AD38 cells (Promega CellTiter-Glo) at the end of compound treatment. It counts as cell-based. The following applies: 10 μM compound, 6 days, luminescence normalized against DMSO control wells (controls being 100%). On the procedure: as §1, §2
At the end of compound treatment period cell viability was assessed using a Promega CellTiter-Glo protocol. All supernatant was removed the previously treated 96-well microtiter plate, and 50 μL Tetracycline-free treatment medium (DMEM/F12 (1:1), lx Pen/step (cat#: 30-002-CL, Mediatech, Inc), with 2% FBS, Tet-system approved (cat#: 631106, Clontech), and 1% DMSO was added back to each well. Another 50 μL of CellTiter-Glo reagent solution (Promega, G7573) was then added at room temperature and the contents mixed for 2 minutes on an orbital shaker to induce cell lysis. This was followed by incubation at room temperature for 10 minutes to stabilize the luminescent signal. The luminescence was recorded for 0.2 seconds per well on a Tecan multimode platereader (Infinite M1000 pro). The luminescent signal from each well was normalized against that of untreated (DMSO) control wells. All results were reported percent viability (with controls being 100%).
Background: Cellular ATP, detected with luciferase, serves as a proxy for viable cell number.

With `O=C(NCc1ccccc1F)c1ccc2c(c1)NC(=O)c1ccccc1S2` [Compound 1167], the activity at 10 µM in data set [1] turned out to be 57%. For the same compound, the “AD38 Viability Normalized Result (CPAM/DMSO %) at 10 μM” value in data set [2] is recorded as 124%.
In the same order, the values of `O=C(NCc1cccc(F)c1)c1ccc2c(c1)NC(=O)c1ccccc1S2` [Compound 1168] are 10% and 117%.
For `O=C(NCC1CCCCC1)c1ccc2c(c1)NC(=O)c1ccccc1S2` [Compound 1169] the same measures were 39% and 107%.
For the compound `O=C(NCCC12CC3CC(CC(C3)C1)C2)c1ccc2c(c1)NC(=O)c1ccccc1S2` [Compound 1170], in data set [1], the activity at 10 µM came out at 1%. In data set [2], the “AD38 Viability Normalized Result (CPAM/DMSO %) at 10 μM” value stood at 95%.
For the compound `COCCNC(=O)c1ccc2c(c1)NC(=O)c1ccccc1S2` [Compound 1171], the activity at 10 µM in data set [1] worked out at 49%. In addition, the “AD38 Viability Normalized Result (CPAM/DMSO %) at 10 μM” value in data set [2] is reported as 103%.
Consider `O=C(NCCO)c1ccc2c(c1)NC(=O)c1ccccc1S2` [Compound 1172], for which the activity at 10 µM in data set [1] was found to be 51%. Besides, the “AD38 Viability Normalized Result (CPAM/DMSO %) at 10 μM” value in data set [2] was 107%.
For the compound `O=C(NCC1CC1)c1ccc2c(c1)NC(=O)c1ccccc1S2` [Compound 1173], in data set [1], the activity at 10 µM is 39%. The “AD38 Viability Normalized Result (CPAM/DMSO %) at 10 μM” value in data set [2] is recorded as 105%.
In the same order, the values of `O=C(NCC1CCC1)c1ccc2c(c1)NC(=O)c1ccccc1S2` [Compound 1174] are 35% and 109%.
For `O=C(NCCN1CCOCC1)c1ccc2c(c1)NC(=O)c1ccccc1S2` [Compound 1175] the same measures were 30% and 123%.
For `CCC(CNC(=O)c1ccc2c(c1)NC(=O)c1ccccc1S2)c1ccccc1` (stereo not drawn) [Compound 1176] the same measures were 2% and 104%.
In the case of `CC(Cc1cccc(O)c1)NC(=O)c1ccc2c(c1)NC(=O)c1ccccc1S2` (stereo not drawn) [Compound 1177], the activity at 10 µM in data set [1] was 47%. In addition, in data set [2], the “AD38 Viability Normalized Result (CPAM/DMSO %) at 10 μM” value stood at 118%.
In the same order, the values of `O=C(NCCc1ccc(OC(F)(F)F)cc1)c1ccc2c(c1)NC(=O)c1ccccc1S2` [Compound 1182] are 13% and 55%.
For `Cc1cccc(CCNC(=O)c2ccc3c(c2)NC(=O)c2ccccc2S3)c1` [Compound 1183], the activity at 10 µM in data set [1] came out at 2%. In data set [2], the “AD38 Viability Normalized Result (CPAM/DMSO %) at 10 μM” value is given as 36%.
For `Cc1ccc(CCNC(=O)c2ccc3c(c2)NC(=O)c2ccccc2S3)cc1` [Compound 1184] the same measures were 1% and 0%.
In the same order, the values of `CCc1ccc(CCNC(=O)c2ccc3c(c2)NC(=O)c2ccccc2S3)cc1` [Compound 1185] are 1% and 0%.
`O=C(NCCc1ccc(C(F)(F)F)cc1)c1ccc2c(c1)NC(=O)c1ccccc1S2` [Compound 1186]: in data set [1], the activity at 10 µM is 1%. Further, the “AD38 Viability Normalized Result (CPAM/DMSO %) at 10 μM” value in data set [2] was found to be 39%.
In the same order, the values of `Cc1ccccc1CNC(=O)c1ccc2c(c1)NC(=O)c1ccccc1S2` [Compound 1187] are 1% and 73%.
In the case of `CCc1ccc(CNC(=O)c2ccc3c(c2)NC(=O)c2ccccc2S3)cc1` [Compound 1188], the activity at 10 µM in data set [1] came out at 4%. In addition, the “AD38 Viability Normalized Result (CPAM/DMSO %) at 10 μM” value in data set [2] is given as 83%.
In the same order, the values of `O=C(NCC12CC3CC(CC(C3)C1)C2)c1ccc2c(c1)NC(=O)c1ccccc1S2` [Compound 1189] are 1% and 85%.
For `O=C(NCCc1cccs1)c1ccc2c(c1)NC(=O)c1ccccc1S2` [Compound 1190] the same measures were 1% and 70%.
In the same order, the values of `O=C(NCCC1CCOCC1)c1ccc2c(c1)NC(=O)c1ccccc1S2` [Compound 1191] are 14% and 121%.
With `O=C(NCCOc1ccccc1)c1ccc2c(c1)NC(=O)c1ccccc1S2` [Compound 1192], in data set [1], the activity at 10 µM worked out at 3%. For the same compound, the “AD38 Viability Normalized Result (CPAM/DMSO %) at 10 μM” value in data set [2] was 81%.
For `O=C(NCC1CCCC1)c1ccc2c(c1)NC(=O)c1ccccc1S2` [Compound 1193] the same measures were 4% and 90%.
For `CC(C)(C)c1ccc(CCNC(=O)c2ccc3c(c2)NC(=O)c2ccccc2S3)cc1` [Compound 1194] the same measures were 1% and 45%.
For `O=C(NCCc1cccc(C(F)(F)F)c1)c1ccc2c(c1)NC(=O)c1ccccc1S2` [Compound 1195] the same measures were 0% and 48%.
As for `O=C(NCc1ccc(O)cc1)c1ccc2c(c1)NC(=O)c1ccccc1S2` [Compound 1196], the activity at 10 µM in data set [1] stood at 2%. For the same compound, the “AD38 Viability Normalized Result (CPAM/DMSO %) at 10 μM” value in data set [2] was 95%.
In the same order, the values of `O=C(NCc1ccc(F)cc1)c1ccc2c(c1)NC(=O)c1ccccc1S2` [Compound 1197] are 1% and 88%.
In the same order, the values of `O=C(NCCC1CCCCC1)c1ccc2c(c1)NC(=O)c1ccccc1C2` [Compound 1198] are 3% and 60%.
In the same order, the values of `O=C(NCCC1CCCCC1)c1ccc2c(c1)Sc1ccccc1C(=O)N2` [Compound 1199] are 19% and 109%.
For `O=C(NCCc1ccccc1)c1ccc2c(c1)Sc1ccccc1C(=O)N2` [Compound 1200], the activity at 10 µM in data set [1] is 18%. The “AD38 Viability Normalized Result (CPAM/DMSO %) at 10 μM” value in data set [2] is 125%.
On to `O=C(NCCc1cccc(OC(F)(F)F)c1)c1ccc2c(c1)NC(=O)c1ccccc1S2` [Compound 1201], for which the activity at 10 µM in data set [1] is 1%. Also, the “AD38 Viability Normalized Result (CPAM/DMSO %) at 10 μM” value in data set [2] is recorded as 50%.
For `O=C(NCc1cccc(O)c1)c1ccc2c(c1)NC(=O)c1ccccc1S2` [Compound 1202] the same measures were 7% and 107%.
In the same order, the values of `O=C(NCc1cccc(OC(F)(F)F)c1)c1ccc2c(c1)NC(=O)c1ccccc1S2` [Compound 1203] are 3% and 89%.
Regarding `O=C(NCCC1CCC(O)CC1)c1ccc2c(c1)NC(=O)c1ccccc1S2` (stereo not drawn) [Compound 1204], the activity at 10 µM in data set [1] stood at 2%. Moreover, the “AD38 Viability Normalized Result (CPAM/DMSO %) at 10 μM” value in data set [2] is given as 97%.
In the same order, the values of `O=C(NCCC1CCCCC1)c1ccc2c(c1)NC(=O)c1ccccc1S2(=O)=O` [Compound 1206, N-(2-cyclohexylethyl)-11-oxo-10, 11-dihydrodibenzo [b,f] [1,4] thiazepine-8-carboxamide 5,5-dioxide] are 10% and 106%.
In the case of `O=C(CCC1CCCCC1)Nc1ccc2c(c1)NC(=O)c1ccccc1S2` [Compound 1207], in data set [1], the activity at 10 µM came out at 24%. Further, the “AD38 Viability Normalized Result (CPAM/DMSO %) at 10 μM” value in data set [2] was 99%.
For `O=C(NCCOc1ccc(F)cc1)c1ccc2c(c1)NC(=O)c1ccccc1S2` [Compound 1208] the same measures were 11% and 103%.
For the compound `O=C(NCCC1CCCO1)c1ccc2c(c1)NC(=O)c1ccccc1S2` (stereo not drawn) [Compound 1209], the activity at 10 µM in data set [1] is 1%. For the same compound, the “AD38 Viability Normalized Result (CPAM/DMSO %) at 10 μM” value in data set [2] worked out at 102%.
For `O=C(NCc1ccccn1)c1ccc2c(c1)NC(=O)c1ccccc1S2` [Compound 1210] the same measures were 25% and 116%.
In the same order, the values of `O=C(NCc1cccnc1)c1ccc2c(c1)NC(=O)c1ccccc1S2` [Compound 1211] are 1% and 106%.
For `CC(CNC(=O)c1ccc2c(c1)NC(=O)c1ccccc1S2)c1ccccc1` (stereo not drawn) [Compound 1212] the same measures were 1% and 72%.
As to `CC(C)(CNC(=O)c1ccc2c(c1)NC(=O)c1ccccc1S2)c1ccccc1` [Compound 1213], the activity at 10 µM in data set [1] is 2%. In addition, the “AD38 Viability Normalized Result (CPAM/DMSO %) at 10 μM” value in data set [2] was 55%.
